# Laboratory results from publication PMC7604414, “Favipiravir at high doses has potent antiviral activity in SARS-CoV-2−infected hamsters, whereas hydroxychloroquine lacks activity” (Proceedings of the National Academy of Sciences of the …, 2020).
# Several values for one entry are separate records, joined by “and”; a condition that tells them apart may be missing. Equal entries are not always repeated. Where two headings read alike, the source gives them in different places.
# Key:
# [1] = value applied in pH partition calculation; cited from earlier work
# SARS-CoV-2 [2] = tested on: SARS-CoV-2; set-up: method as in PMID 32492293; conditions: postexposure prophylaxis, high doses of HCQ; cited from earlier work
# SARS-CoV-2 [3] = conditions: hamster, in vivo
# SARS-CoV-2 [4] = conditions: interquartile range of 5.4 (25 to 75%); read-out: reported in vitro EC50, median value; cited from earlier work
# COVID-19 [5] = tested on: COVID-19; set-up: method as in ref 32 = [32]; 32 P. W. Horby , M. Landray , “Press release: No clinical benefit from use of hydroxychloroquine in hospitalised patients with COVID-19” (University of Oxford, 2020) .; conditions: patients admitted with COVID-19; cited from earlier work
# SARS-CoV-2 [6] = test: Reported in vitro EC50 values of HCQ against SARS-CoV-2; format: cell-based; conditions: equated to 3 times the reported EC50
# [7] = set-up: method as in ref 50 (Tett et al.) and summary of product characteristics of Plaquenil; conditions: ref 50 (Tett et al.) and summary of product characteristics of Plaquenil; cited from earlier work
# SARS-CoV-2 [8] = tested on: SARS-CoV-2; set-up: method as in PMID 32444382; conditions: cited from earlier work
# [9] = HCQ plasma trough concentrations in hamsters (HPLC-MS); conditions: female, Syrian, hamster, intraperitoneal, 50 mg/kg/d
# SARS-CoV-2 [10] = tested on: SARS-CoV-2; set-up: method as in ref 13 = [13]; 13 P. Maisonnasse ., Hydroxychloroquine in the treatment and prophylaxis of SARS-CoV-2 infection in non-human primates . Research Square:10.21203/RS.3.RS-27223/V1 (6 May 2020) .; conditions: therapeutic and prophylactic setting; cited from earlier work
# [11] = Calculation of HCQ blood, total lung and lung compartment concentrations; set-up: species or system Syrian hamsters
# Method: Starting from the measured total trough plasma concentrations measured at killing after 4 d or 5 d of HCQ treatment, total lung cytosolic concentrations of HCQ were calculated. First, the mean trough total plasma concentration of HCQ was used as a starting point to estimate the whole blood concentrations considering a blood to plasma ratio of 7.2, as reported by Tett et al. ([50]) and as mentioned in the summary of product characteristics of Plaquenil (Sanofi) (Eq. 1). whole blood concentration=plasma concentration×7.2.
# Relying on the experimental Kp (tissue versus whole blood partition coefficient) values in rats, the total lung tissue concentrations of HCQ were determined. Based on the partition values as reported by Wei et al. ([51]), a lung Kp value of 50 was applied to estimate the total lung concentration (Eq. 2). total lung tissue concentration=mean blood concentration×50.
# Based on these calculations, lung cytosolic HCQ concentrations correspond to 6% of the total lung tissue concentration (Eq. 3). total cytosolic lung tissue concentration=total lung tissue concentration×0.06.
# [12] = set-up: method as in ref 51 (Wei et al.); conditions: rats, ref 51 (Wei et al.); cited from earlier work
# [13] = set-up: method as in PMID 32405421; conditions: cited from earlier work
# COVID-19 [14] = tested on: COVID-19; set-up: method as in ref 39 = [39]; 39 C. Chen ., Favipiravir versus arbidol for COVID-19: A randomized clinical trial . medRxiv:10.1101/2020.03.17.20037432 (20 March 2020) .; conditions: cited from earlier work
# [15] = human, in vivo; cited from earlier work
# SARS-CoV-2 [16] = tested on: SARS-CoV-2; set-up: method as in PMID 33741945; conditions: cited from earlier work
# [17] = Favipiravir plasma trough concentrations in hamsters; format: in vivo, Syrian hamsters; conditions: for concentration at 16 h after last treatment: female, hamster, plasma
smiles,measurement,setting,value
"CCN(CCO)CCCC(C)Nc1ccnc2cc(Cl)ccc12 (stereo not shown) [HCQ, hydroxychloroquine]",pKa,[1],9.67
same,prevention of SARS-CoV-2 infection or COVID-19-like disease,SARS-CoV-2 [2],did not prevent
same,radiological improvement (micro-CT) vs nontreated animals,SARS-CoV-2 [3],no radiological improvement
same,reduction in viral RNA load in the ileum or stool,SARS-CoV-2 [3],no reduction
same,reduction of infectious virus titers in the lungs,SARS-CoV-2 [3],no significant reduction
same,reduction of viral RNA in lung vs untreated infected hamsters,SARS-CoV-2 [3],0.3 log10 viral RNA copies per mg of lung
same,weight loss,SARS-CoV-2 [3],< 5%
same,EC50,SARS-CoV-2 [4],4.5 µM
same,mortality or duration of hospital stay,COVID-19 [5],did not result in a beneficial effect
same,"estimated EC90 (3 times the EC50), target lung concentration",SARS-CoV-2 [6],13.5 ± 16.3 µM
same,blood to plasma ratio,[7],7.2
same,virus titers in SARS-CoV-2-infected ferrets,SARS-CoV-2 [8],not able to significantly reduce
same,concentration at 4 d post infection (at killing),[9],84 ng/mL and 300 nM
same,viral loads in SARS-CoV-2-infected cynomolgus macaques,SARS-CoV-2 [10],did not result in a significant decrease
same,lung cytosolic HCQ concentration as share of total lung tissue concentration,"[11]; pH partition theory, relative lung compartment volumes",6%
same,endosomal/lysosomal HCQ concentration,"[11]; trough, HCQ sulfate 50 mg/kg/d",1.9 mM
same,interstitial concentration in lung,"[11]; trough, HCQ sulfate 50 mg/kg/d",5.4 µM
same,total lung concentration (Eq. 2),"[11]; trough, HCQ sulfate 50 mg/kg/d, blood concentration × 50",90.2 ± 69.4 µM
same,whole blood concentration (Eq. 1),"[11]; trough, HCQ sulfate 50 mg/kg/d, plasma concentration × 7.2",1.8 ± 1.4 µM
same,total cytosolic lung tissue concentration (Eq. 3),"[11]; trough, HCQ sulfate 50 mg/kg/d, total lung × 0.06",5.4 ± 4.2 µM
same,lung Kp (tissue versus whole blood partition coefficient),[12],50
NC(=O)c1nc(F)c[nH]c1=O [favipiravir],decrease of viral RNA in lung vs untreated infected hamsters,SARS-CoV-2 [3],1.0 log10 RNA copies per mg of lung tissue
same,effect on viral RNA in ileum and stool,SARS-CoV-2 [3],a smaller effect
same,hamsters with infectious virus in the lungs,SARS-CoV-2 [3],two
same,histological lung pathology (H&E cumulative severity score),SARS-CoV-2 [3],significant improvements
same,reduction in viral RNA levels in the lungs,SARS-CoV-2 [3],smaller inhibitory effect
same,reduction of relative infectivity of lung virus particles,SARS-CoV-2 [3],136 fold and 172 fold
same,relative lung viral particle infectivity (infectious particles / viral RNA genomes),SARS-CoV-2 [3],did not decrease
same,weight loss,SARS-CoV-2 [3],over 5%
same,"weight loss, on average",SARS-CoV-2 [3],2%
same,toxicity signs in clinical presentation,SARS-CoV-2 [3]; ip,No toxicity signs
same,teratogenicity,[13],teratogenic
same,clinical recovery rate vs arbidol control group,COVID-19 [14]; COVID-19 patients with hypertension and/or diabetes and critically ill patients,not significantly different
same,clinical recovery rate at day 7 vs arbidol control group,COVID-19 [14]; COVID-19 patients with mild symptoms,higher
same,median plasma trough concentration,[15],25.9 µg/mL
same,viral replication in the lung,"SARS-CoV-2 [16]; favipiravir 1,400 mg/kg/d TID started 1 d before intranasal infection",undetectable
same,toxicity (weight loss from first day of treatment),"SARS-CoV-2 [16]; favipiravir 1,400 mg/kg/d TID",high toxicity
same,virus infection in hamsters,"SARS-CoV-2 [16]; favipiravir ~1,400 mg/kg/d TID",significant reductions
same,concentration at 16 h after last treatment,"[17]; Syrian, intraperitoneal, 1000 mg/kg/d, favipiravir 1,000 mg/kg/d i.p. BID for 4 d, read-out: plasma trough level",~4400 ng/mL
same,concentration at 16 h after last treatment,"[17]; intraperitoneal, 1000 mg/kg/d, favipiravir 1,000 mg/kg/d i.p. BID for 4 d, read-out: plasma trough level",4400 ± 1600 ng/mL
same,concentration at 16 h after last treatment,"[17]; intraperitoneal, favipiravir 600 mg/kg/d i.p. BID for 4 d, read-out: plasma trough level",1200 ± 300 ng/mL
same,concentration at 16 h after last treatment,"[17]; favipiravir 300 mg/kg/d oral BID for 4 d, read-out: average plasma trough concentration",200 ± 30 ng/mL
same,favipiravir trough concentrations in sentinel hamsters vs infection model,"[17]; preexposure prophylaxis with 300 and 1,000 mg/kg/d, dosing for 5 d",similar
